According to ChEMBL document CHEMBL4622884, “Synthesis of novel 3,5,6-trisubstituted 2-pyridone derivatives and evaluation for their anti-inflammatory activity” (Bioorg Med Chem, 2020):
Calls of active or inactive are those of the source. The rule behind the calls is not given here.

What was measured:
Mus musculus [1] = assay: Anti-inflammatory activity against croton oil-induced ear edema in Swiss mouse model assessed as inhibition of ear edema at 1.25 mg/ear administered topically immediately after croton oil-stimulation and measured after 6 hrs relative to control; format: functional
[2] = Cytotoxicity against mouse J774A1 cells assessed as reduction in cell viability measured after 48 hrs by MTT assay; format: cell-based, J774.A1
[3] = Cytotoxicity against mouse L929 cells assessed as reduction in cell viability measured after 72 hrs by MTT assay; format: cell-based
Mus musculus [4] = assay: Anti-inflammatory activity against croton oil-induced ear edema in Swiss mouse model assessed as inhibition of ear edema at 0.625 mg/ear administered topically immediately after croton oil-stimulation and measured after 6 hrs relative to control; format: functional
Mus musculus [5] = assay: Anti-inflammatory activity against croton oil-induced ear edema in Swiss mouse model assessed as inhibition of myeloperoxidase activity at 1.25 mg/ear administered topically immediately after croton oil-stimulation and measured after 6 hrs by microplate spectrophotometry relative to control; format: functional
Mus musculus [6] = assay: Anti-inflammatory activity against croton oil-induced ear edema in Swiss mouse model assessed as inhibition of myeloperoxidase activity at 0.625 mg/ear administered topically immediately after croton oil-stimulation and measured after 6 hrs by microplate spectrophotometry relative to control; format: functional
[7] = target: T1, Prostaglandin G/H synthase 2 (Homo sapiens) (UniProt P35354); assay: Inhibition of recombinant human COX-2 at 1.95 uM by microplate reader based assay relative to control
T1 sequence (whole entry): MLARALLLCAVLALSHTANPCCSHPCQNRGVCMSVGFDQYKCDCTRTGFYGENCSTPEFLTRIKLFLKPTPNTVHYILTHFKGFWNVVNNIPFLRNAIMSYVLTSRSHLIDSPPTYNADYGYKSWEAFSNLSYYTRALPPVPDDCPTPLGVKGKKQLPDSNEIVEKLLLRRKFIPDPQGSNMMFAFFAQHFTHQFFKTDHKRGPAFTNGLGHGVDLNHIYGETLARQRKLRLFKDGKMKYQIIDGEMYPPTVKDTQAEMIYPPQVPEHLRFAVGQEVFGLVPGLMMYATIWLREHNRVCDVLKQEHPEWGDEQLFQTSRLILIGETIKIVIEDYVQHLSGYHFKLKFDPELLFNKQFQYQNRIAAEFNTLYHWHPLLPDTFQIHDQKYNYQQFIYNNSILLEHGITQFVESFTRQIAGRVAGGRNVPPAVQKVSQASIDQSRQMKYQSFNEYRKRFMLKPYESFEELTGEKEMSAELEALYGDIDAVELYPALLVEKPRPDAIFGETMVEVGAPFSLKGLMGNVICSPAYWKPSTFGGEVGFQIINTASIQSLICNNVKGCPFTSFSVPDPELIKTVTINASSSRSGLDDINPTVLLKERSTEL

[8] = target: T1, Prostaglandin G/H synthase 2 (Homo sapiens); assay: Inhibition of recombinant human COX-2 at 31.25 uM by microplate reader based assay relative to control
Mus musculus [9] = assay: Anti-inflammatory activity against croton oil-induced ear edema in Swiss mouse model assessed as inhibition of ear edema at 1 mg/ear administered topically immediately after croton oil-stimulation and measured after 6 hrs relative to control; format: functional
Mus musculus [10] = assay: Anti-inflammatory activity against croton oil-induced ear edema in Swiss mouse model assessed as inhibition of myeloperoxidase activity at 1 mg/ear administered topically immediately after croton oil-stimulation and measured after 6 hrs by microplate spectrophotometry relative to control; format: functional
[11] = target: T2, COX-1 (Prostaglandin G/H synthase 1) (Ovis aries, UniProt P05979); assay: Inhibition of ovine COX-1 at 1.95 uM by microplate reader based assay relative to control; settings: sheep, ovine COX-1 enzyme
T2 sequence (P05979 whole entry): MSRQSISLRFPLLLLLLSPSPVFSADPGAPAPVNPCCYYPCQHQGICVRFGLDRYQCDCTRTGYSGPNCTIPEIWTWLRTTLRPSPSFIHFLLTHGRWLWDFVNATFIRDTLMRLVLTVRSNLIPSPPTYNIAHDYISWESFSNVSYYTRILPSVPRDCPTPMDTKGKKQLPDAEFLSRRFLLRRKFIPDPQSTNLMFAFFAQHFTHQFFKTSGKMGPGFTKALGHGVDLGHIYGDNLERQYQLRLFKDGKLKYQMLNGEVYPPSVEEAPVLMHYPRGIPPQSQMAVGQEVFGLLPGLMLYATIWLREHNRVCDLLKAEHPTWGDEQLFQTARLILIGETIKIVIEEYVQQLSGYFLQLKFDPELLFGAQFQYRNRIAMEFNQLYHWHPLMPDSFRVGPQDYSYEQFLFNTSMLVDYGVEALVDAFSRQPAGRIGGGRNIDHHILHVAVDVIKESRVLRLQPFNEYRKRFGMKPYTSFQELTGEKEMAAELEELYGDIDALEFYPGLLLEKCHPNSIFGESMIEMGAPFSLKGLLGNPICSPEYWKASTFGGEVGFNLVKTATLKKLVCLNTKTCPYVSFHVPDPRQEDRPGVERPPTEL

[12] = target: T2, COX-1 (Prostaglandin G/H synthase 1); assay: Inhibition of ovine COX-1 at 31.25 uM by microplate reader based assay relative to control; settings: sheep, ovine COX-1 enzyme
Ovis aries = species: Ovis aries; assay: Selectivity index, ratio of IC50 of ovine COX-1 to […]

Structure (SMILES)	CC50 at 48 h [2] [µM]	CC50 at 72 h [3] [µM]	inhibition (INH) (Mus musculus [1]) [%]	inhibition (INH) (Mus musculus [4]) [%]	inhibition (INH) (Mus musculus [5]) [%]	inhibition (INH) (Mus musculus [6]) [%]	other results
CCOC(=O)c1[nH]c(=O)c(C#N)cc1C(=O)c1ccc(F)cc1	< 100	232	–	–	–	–	inhibition (Mus musculus [1]): Active
CCOC(=O)c1[nH]c(=O)c(C(=O)OCC)cc1C(=O)c1ccc([N+](=O)[O-])cc1	–	–	87.9	66.3	99	99	–
CCOC(=O)c1[nH]c(=O)c(C#N)cc1C(=O)c1ccc([N+](=O)[O-])cc1.CNC [listing 1 of 2 here]	–	–	–	–	–	–	inhibition [7]: 74%; inhibition [8]: 10.1%
CCOC(=O)c1[nH]c(=O)c(C#N)cc1C(=O)c1ccc(Br)cc1	< 100	242	–	–	–	–	inhibition (Mus musculus [1]): Active
CCOC(=O)c1[nH]c(=O)c(C#N)cc1C(=O)c1ccc(Cl)cc1	< 100	218	73.9	–	99	99	–
COc1ccc2c(c1)c(CC(=O)O)c(C)n2C(=O)c1ccc(Cl)cc1 [INDOMETHACIN]	–	–	–	–	–	–	inhibition (INH) (Mus musculus [9]): 98.2%; inhibition (INH) (Mus musculus [10]): 48%
CCOC(=O)c1[nH]c(=O)c(C(=O)O)cc1C(=O)c1ccc(Cl)cc1	–	–	–	–	93	99	–
CCOC(=O)c1[nH]c(=O)c(C(=O)OCC)cc1C(=O)c1ccc(Cl)cc1	–	–	–	–	88.1	94.4	–
CCOC(=O)c1[nH]c(=O)c(C#N)cc1C(=O)c1ccc(OC)cc1	< 100	259	–	–	–	–	inhibition (Mus musculus [1]): Active
O=C(c1ccc([N+](=O)[O-])cc1)c1cc(C(=O)O)c(=O)[nH]c1C(=O)O	388	439	93	90.8	94.3	99.6	inhibition [7]: 20.2%; inhibition at 1.95 µM [11]: 12.4%; inhibition at 31.25 µM [12]: 36.8%; inhibition [8]: 38.1%
CCOC(=O)c1[nH]c(=O)c(C#N)cc1C(=O)c1ccc(Cl)cc1.CNC	–	–	71.3	70.1	99.9	99	–
CCOC(=O)c1[nH]c(=O)c(C#N)cc1C(=O)c1ccccc1	215	465	–	–	–	–	inhibition (Mus musculus [1]): Active
N#Cc1cc(C(=O)c2ccc([N+](=O)[O-])cc2)c(C(=O)O)[nH]c1=O	–	–	64.6	–	97.6	99	–
CCOC(=O)c1[nH]c(=O)c(C#N)cc1C(=O)c1ccc([N+](=O)[O-])cc1.CNC [listing 2 of 2 here]	< 100	257	98.9	70	98.9	99	inhibition at 31.25 µM [12]: 16.3%
CCOC(=O)c1[nH]c(=O)c(C#N)cc1C(=O)c1ccc([N+](=O)[O-])cc1	< 100	213	93	–	99	99	–
N#Cc1cc(C(=O)c2ccc(Cl)cc2)c(C(=O)O)[nH]c1=O	–	–	–	74.5	–	84.5	–
O=C(c1ccc(Cl)cc1)c1cc(C(=O)O)c(=O)[nH]c1C(=O)O	–	–	54.2	84	99	89.4	–
CS(=O)(=O)c1ccc(-c2cc(Cn3ccnc3)c3ccc(C4CCCCC4)c(C4CCCCC4)c3n2)cc1	–	–	–	–	–	–	Ratio IC50 (Ovis aries): 548
CCOC(=O)c1[nH]c(=O)c(C#N)cc1C(=O)c1ccc(C)cc1	194	512	–	–	–	–	inhibition (Mus musculus [1]): Active
